Earlier results as cited in US8481599B2, “Compositions and methods for increasing compliance with therapies using aldehyde dehydrogenase inhibitors and treating alcoholism” (Tonix Pharmaceuticals Inc., priority 2001, dated 2013).
Read-outs that look alike come from different tables or passages of the source.

Assays:
[1] = rat studies
[2] = tested on: ALDH; conditions: rat studies
[3] = target: T1, ALDH-I (Homo sapiens, UniProt P05091)
T1 sequence (P05091 18-517): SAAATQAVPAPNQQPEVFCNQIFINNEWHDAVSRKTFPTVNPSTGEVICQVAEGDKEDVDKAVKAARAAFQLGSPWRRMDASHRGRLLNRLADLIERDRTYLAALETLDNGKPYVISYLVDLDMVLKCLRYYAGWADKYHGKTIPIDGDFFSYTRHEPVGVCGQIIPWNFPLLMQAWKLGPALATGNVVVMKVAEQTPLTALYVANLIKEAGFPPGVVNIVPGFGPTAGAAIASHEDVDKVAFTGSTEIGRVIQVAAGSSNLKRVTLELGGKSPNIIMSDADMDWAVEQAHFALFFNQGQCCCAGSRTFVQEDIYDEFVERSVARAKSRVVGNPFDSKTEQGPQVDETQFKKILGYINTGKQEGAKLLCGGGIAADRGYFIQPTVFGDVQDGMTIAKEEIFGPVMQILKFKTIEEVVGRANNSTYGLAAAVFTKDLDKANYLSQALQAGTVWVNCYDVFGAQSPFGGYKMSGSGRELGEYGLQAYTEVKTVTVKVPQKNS

[4] = target: T2, ALDH-II (Homo sapiens, UniProt P00352); conditions: in vitro
T2 sequence (P00352 1-501): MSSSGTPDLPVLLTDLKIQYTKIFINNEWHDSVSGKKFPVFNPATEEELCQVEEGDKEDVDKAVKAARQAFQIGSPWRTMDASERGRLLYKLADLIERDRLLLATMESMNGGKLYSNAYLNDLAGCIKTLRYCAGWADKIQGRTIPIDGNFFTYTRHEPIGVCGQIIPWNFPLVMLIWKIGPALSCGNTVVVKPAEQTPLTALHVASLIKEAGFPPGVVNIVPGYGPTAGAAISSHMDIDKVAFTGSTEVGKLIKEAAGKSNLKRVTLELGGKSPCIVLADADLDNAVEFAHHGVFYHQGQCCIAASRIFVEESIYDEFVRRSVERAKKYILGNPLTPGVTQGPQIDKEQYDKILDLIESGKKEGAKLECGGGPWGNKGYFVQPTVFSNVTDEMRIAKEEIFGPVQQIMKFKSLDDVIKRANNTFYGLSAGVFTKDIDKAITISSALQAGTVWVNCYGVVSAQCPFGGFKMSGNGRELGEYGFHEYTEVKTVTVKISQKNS

Molecule: N5-(hydroxycyclopropyl)-L-glutamine [coprine]
- suppression of ethanol consumption [1]: effectively suppressed ethanol consumption
- potency as ALDH inhibitor relative to disulfiram [2]: more potent inhibitor of ALDH as compared to disulfiram

Molecule: O=c1c(-c2ccc(O)cc2)coc2cc(O[C@@H]3O[C@H](CO)[C@@H](O)[C@H](O)[C@H]3O)ccc12 [Daidzin]
- inhibition of ALDH-I [3]: selective potent reversible inhibitor

Molecule: N#CN [cyanamide]
- inhibition of ALDH-I ([3]; in vitro): unable to inhibit
- inhibition of ALDH-II [4]: unable to inhibit
